# Where a SMILES comes first, the peptide text is derived from it. [ ]: non-standard residue; d: D form. The star is where a group is joined. NH(2-(2-pyridyl)ethyl) = c1ccc(CCN*)nc1; NH(4-Br-phenethyl) = Brc1ccc(CCN*)cc1; NMe2Val = CC(C)[C@@H](C(=O)*)N(C)C; X5 = O=[N+]([O-])c1ccc(CCN*)cc1; NHPhenethyl = c1ccc(CCN*)cc1; NMeV = CN[C@H](C(=O)O)C(C)C; Hiv = CC(C)[C@H](O)C(=O)O; X2 = c1ccc2ncc(N*)cc2c1; X4 = COc1ccc(CCN*)cc1OC; X3 = c1ccc2sc(N*)nc2c1; X7 = Clc1cccc(CCN*)c1; NHBn = c1ccc(CN*)cc1; X6 = Fc1ccc(CCN*)cc1; X8 = Clc1ccccc1CCN*
# What was measured:
# [1] = tested on: murine P388 lymphocytic leukemia cells; assay: growth inhibition of murine P388 lymphocytic leukemia cells; format: cell-based; details: dosage inhibiting tumor cell growth by 50%
# Description: (§1) All compounds synthesized were first evaluated for in vitro antitumor activity against murine P388 lymphocytic leukemia cells and against murine L1210 leukemia cells and human CA46 Burkitt lymphoma cells using techniques described by Hamel & Lin (see: HAMEL, E., and LIN, C. M., […], Interaction of combretastatin, a new plant-derived antimitotic agent, with tubulin, Biochemical Pharmacology, 32, 3864). The compounds were also evaluated in the NCI's human tumor 60-cell-line in intro primary screen as described by Monks et al. (see: MONKS, A., SCUDIERO, et al., 1991, New colorimetric cytotoxicity assay for anticancer drug screening, Journal of the National Cancer Institute, 83, 757). Data analyses were performed using methods described by Boyd and Paull (see: BOYD, M. R., et al., 1995, Some practical considerations and applications of the National Cancer Institute in vitro anticancer drug discovery screen, Drug Development Research, 34, 91). A tubulin polymerization inhibition assay was performed according to a modified version of the procedure used previously and described by Muzaffar et al. (see: MUZAFFAR, A., et al., 1990, Antitubulin effects of derivatives of 3-demethylthiocolchicine, methylthio esters of natural colchicinoids, and thioketones derived from thiocolchicine, Comparison with colchicine, Journal of Medicinal Chemistry, 33, 567) to evaluate the effects of dolastatin 15 on cellular microtubule assembly. The new assay for these compounds employed a drug-tubulin preincubation (15 min.) with 10 μM tubulin in 0.8 M glutamate at 30° C., followed by addition of GTP and incubation (20 min.) at 30° C., with tubulin polymerization monitored turbidimetrically in GILFORD recording spectrophotometers.
# [2] = tested on: NCI 60-cell-line in vitro human tumor panel; details: read-out: Mean Panel GI50; mean ± S.D. of triplicate tests (* duplicate)
# Description: as §1
# [3] = tested on: human CA46 Burkitt lymphoma cells; details: read-out: Human CA46 Burkitt Lymphoma IC50; cells counted after 20 hours
# Description: as §1
# [4] = tested on: murine L1210 leukemia cells; details: read-out: Mouse Leukemia L1210 IC50; cells counted after 24 hours of growth
# Description: as §1
# [5] = tested on: human CA46 Burkitt lymphoma cells; assay: mitotic arrest in drug-treated CA46 Burkitt cells; format: cell-based; details: 80 nM drug for 20 hours, control cells 3% mitotic
# Description: To further verify the assumption that this entire series of compounds is acting intracellularly by interfering with tubulin function, the drug-treated Burkitt cells for mitotic arrest were analyzed.
# Erwinia carotovora = assay: antimicrobial disk susceptibility test; format: cell-based; details: twofold dilutions
# Description: Antimicrobial disk susceptibility tests were performed according to the method established by the National Committee for Clinical Laboratory Standards (NCCLS, 1997). MUELLER-HINTON agar was used for susceptibility testing of Staphylococcus aureus, Enterococcus faecalis, Micrococcus luteus, Escherichia coli, Enterobacter cloacae, Bacillus subtilis, Pseudomonas aeruginosa, and Erwinia carotovora, Gonococcal Typing agar for Neisseria gonorrhoeae, and YM agar for Candida albicans and Cryptococcus neoformans. Immediately prior to susceptibility assays, compounds were reconstituted in sterile DMSO and twofold dilutions applied to sterile 6-mm disks. Zones of inhibition were read at 16 hours for bacterial cultures (except for M. luteus) and 42 hours for fungal cultures and M. luteus. MIC determinations were performed in duplicate.
# tubulin = tubulin polymerization inhibition, 0.8 M glutamate at 30° C.; format: biochemical; details: read-out: tubulin assembly IC50
# Description: as §1
# Since these high molecular weight polymers, like microtubules, scatter light, they make it impossible to quantify drug effects by turbidimetry or centrifugation. […] (no MgCl2 added to reactions).
SMILES,Mouse Leukemia P388 ED50 [1],GI50 [2],IC50 [3],IC50 [4],% Mitotic Cells [5],"Minimum inhibitory concentration, Erwinia carotovora (Erwinia carotovora)",IC50 (tubulin)
COC(=O)[C@H](Cc1ccccc1)NC(=O)[C@@H](OC(=O)[C@@H]1CCCN1C(=O)[C@@H]1CCCN1C(=O)[C@H](C(C)C)N(C)C(=O)[C@@H](NC(=O)[C@H](C(C)C)N(C)C)C(C)C)C(C)C [Compound 12m] (NMe2Val-V[NMeV]PP[Hiv]F-OMe),0.54 ng/mL,3.76 ± 1.05 nM,1 nM,3 nM,40%,50-100 μg/disk,
CC(C)[C@H](NC(=O)[C@H](C(C)C)N(C)C)C(=O)N(C)[C@H](C(=O)N1CCC[C@H]1C(=O)N1CCC[C@H]1C(=O)O[C@H](C(=O)NCCc1cccc(Cl)c1)C(C)C)C(C)C [Compound 12f] (NMe2Val-V[NMeV]PP[Hiv]-X7),0.37 ng/mL,0.83 ± 0.41 nM,2 nM,4 nM,38%,,
CC(C)[C@H](NC(=O)[C@H](C(C)C)N(C)C)C(=O)N(C)[C@H](C(=O)N1CCC[C@H]1C(=O)N1CCC[C@H]1C(=O)O[C@H](C(=O)NCc1ccccc1)C(C)C)C(C)C [Compound 12b] (NMe2Val-V[NMeV]PP[Hiv]-NHBn),0.42 ng/mL,0.79 ± 0.1 nM,0.3 nM,1 nM,46%,50-100 μg/disk,
CC(C)[C@H](NC(=O)[C@H](C(C)C)N(C)C)C(=O)N(C)[C@H](C(=O)N1CCC[C@H]1C(=O)N1CCC[C@H]1C(=O)O[C@H](C(=O)NCCc1ccccn1)C(C)C)C(C)C [Compound 12k] (NMe2Val-V[NMeV]PP[Hiv]-{NH(2-(2-pyridyl)ethyl)}),0.40 ng/mL,3 ± 1.04 nM,2 nM,4 nM,30%,50-100 μg/disk,
CC(C)[C@H](NC(=O)[C@H](C(C)C)N(C)C)C(=O)N(C)[C@H](C(=O)N1CCC[C@H]1C(=O)N1CCC[C@H]1C(=O)O[C@H](C(=O)NCCc1ccccc1Cl)C(C)C)C(C)C [Compound 12g] (NMe2Val-V[NMeV]PP[Hiv]-X8),0.33 ng/mL,0.81 ± 0.31 nM,2 nM,4 nM,26%,,
COc1ccc(CCNC(=O)[C@@H](OC(=O)[C@@H]2CCCN2C(=O)[C@@H]2CCCN2C(=O)[C@H](C(C)C)N(C)C(=O)[C@@H](NC(=O)[C@H](C(C)C)N(C)C)C(C)C)C(C)C)cc1OC [Compound 12j] (NMe2Val-V[NMeV]PP[Hiv]-X4),0.40 ng/mL,1.5 ± 0.58 nM,0.8 nM,2 nM,31%,50-100 μg/disk,
CC(C)[C@H](NC(=O)[C@H](C(C)C)N(C)C)C(=O)N(C)[C@H](C(=O)N1CCC[C@H]1C(=O)N1CCC[C@H]1C(=O)O[C@H](C(=O)Nc1nc2ccccc2s1)C(C)C)C(C)C [Compound 12q] (NMe2Val-V[NMeV]PP[Hiv]-X3),0.45 ng/mL,2.54 nM,2 nM,3 nM,36%,50-100 μg/disk,
CC(C)[C@H](NC(=O)[C@H](C(C)C)N(C)C)C(=O)N(C)[C@H](C(=O)N1CCC[C@H]1C(=O)N1CCC[C@H]1C(=O)O[C@H](C(=O)NCCc1ccc([N+](=O)[O-])cc1)C(C)C)C(C)C [Compound 12i] (NMe2Val-V[NMeV]PP[Hiv]-X5),0.60 ng/mL,0.94 ± 0.41 nM,3 nM,4 nM,36%,,
CC(C)[C@H](NC(=O)[C@H](C(C)C)N(C)C)C(=O)N(C)[C@H](C(=O)N1CCC[C@H]1C(=O)N1CCC[C@H]1C(=O)O[C@H](C(=O)NCCc1ccc(Br)cc1)C(C)C)C(C)C [Compound 12h] (NMe2Val-V[NMeV]PP[Hiv]-{NH(4-Br-phenethyl)}),0.36 ng/mL,0.81 ± 0.15 nM,2 nM,2 nM,48%,,
COC(=O)[C@@H]1CCCN1C(=O)[C@@H](OC(=O)[C@@H]1CCCN1C(=O)[C@@H]1CCCN1C(=O)[C@H](C(C)C)N(C)C(=O)[C@@H](NC(=O)[C@H](C(C)C)N(C)C)C(C)C)C(C)C [Compound 12o] (NMe2Val-V[NMeV]PP[Hiv]P-OMe),3.1 ng/mL,4.48 ± 0.44 nM,2 nM,4 nM,42%,,
CC(C)[C@H](NC(=O)[C@H](C(C)C)N(C)C)C(=O)N(C)[C@H](C(=O)N1CCC[C@H]1C(=O)N1CCC[C@H]1C(=O)O[C@H](C(=O)Nc1cnc2ccccc2c1)C(C)C)C(C)C [Compound 12r] (NMe2Val-V[NMeV]PP[Hiv]-X2),0.29 ng/mL,2.31 nM,2 nM,2 nM,42%,50-100 μg/disk,
"CC(C)[C@H](NC(=O)[C@H](C(C)C)N(C)C)C(=O)N(C)[C@H](C(=O)N1CCC[C@H]1C(=O)N1CCC[C@H]1C(=O)NCc1ccccc1)C(C)C [LU103793, N-dimethyl-L-valyl-L-valyl-N-methyl-L-valyl-L-prolyl-L-prolyl-benzamide] (NMe2Val-V[NMeV]PP-NHBn)",,,,,,,4000 ± 600 nM
COC(=O)[C@H](CCSC)NC(=O)[C@@H](OC(=O)[C@@H]1CCCN1C(=O)[C@@H]1CCCN1C(=O)[C@H](C(C)C)N(C)C(=O)[C@@H](NC(=O)[C@H](C(C)C)N(C)C)C(C)C)C(C)C [Compound 12n] (NMe2Val-V[NMeV]PP[Hiv]M-OMe),0.55 ng/mL,2.93 ± 0.93 nM,3 nM,3 nM,44%,,
"CC(C)[C@H](NC(=O)[C@H](C(C)C)N(C)C)C(=O)N(C)[C@H](C(=O)N1CCC[C@H]1C(=O)N1CCC[C@H]1C(=O)O[C@H](C(=O)NCCc1ccccc1)C(C)C)C(C)C [Compound 12c, N-[(2S)-O-[(N,N-Dimethyl-valyl)-valyl-(N-methyl-valyl)-prolyl-prolyl]-2-hydroxyisovalerlyl]-2-phenethylamide] (NMe2Val-V[NMeV]PP[Hiv]-NHPhenethyl)",0.26 ng/mL,1.06 ± 0.48 nM,0.3 nM,2 nM,45%,50-100 μg/disk,
CC(C)[C@H](NC(=O)[C@H](C(C)C)N(C)C)C(=O)N(C)[C@H](C(=O)N1CCC[C@H]1C(=O)N1CCC[C@H]1C(=O)O[C@H](C(=O)NCCc1ccc(F)cc1)C(C)C)C(C)C [Compound 12d] (NMe2Val-V[NMeV]PP[Hiv]-X6),0.55 ng/mL,0.89 ± 0.29 nM,0.8 nM,4 nM,46%,,

# Reference: patent publication US6686445B1, “Synthetic antineoplastic agents derived from dolastatin 15 and methods of making same” (Arizona Board of Regents, acting for and on behalf of …, priority 1997, dated 2004)
